Values quoted from earlier work as cited in patent publication US20020137785A1, “Inflammatory mechanism modulator composition and methods with anti-asthmatic properties” (priority 2001, published 2002).

Key:
[1] = intravenous; coronary artery disease; tachycardia induced in the electrophysiology laboratory
[2] = people with septic shock; NAC alone; reduced from 21 days

Compound | aborting monomorphic ventricular tachycardia [1] | ventilator time (mechanical breathing) [2]
O=S(=O)([O-])[O-].[Mg+2] [magnesium sulfate] | ineffective | 
CC(=O)N[C@@H](CS)C(=O)O [NAC, N-acetyl-cysteine] |  | about 7 days
